Results from patent publication US7071217B2, “Substituted oxindole derivatives as tyrosine kinase inhibitors” (SmithKline Beecham Corporation, priority 2000, dated 2006).

Target: T1, TrkA (Homo sapiens, UniProt P04629)
T1 construct: The enzyme is a GST-fusion of the intracellular domain expressed in SF9 cells; purchased Regeneron; host or cells: SF9 cells
Assay: TrkA tyrosine kinase substrate phosphorylation assay (Src peptide, 33P-ATP, p81 filter plates)
Type: biochemical
Details: GST-fusion of TrkA intracellular domain; 20-40 nM TrkA, 30 uM ATP, 50 uM Src peptide, RT 120 min
Experimental: The compounds of the present invention have valuable pharmacologic properties. Different compounds from this class are particularly effective at inhibiting the trkA kinase enzyme at concentrations which range from 0.0001 to 1 μM and additionally show specificity relative to other kinases. Substrate phosphorylation assays were carried out as follows:
Screening format: Tyrosine kinase activity is being measured using a synthetic peptide substrate. The enzyme is a GST-fusion of the intracellular domain expressed in SF9 cells. The enzyme is expressed and purified by Regeneron. The enzyme is preincubated with cold ATP and Mg to allow autophosphorylation prior to running the screen. This increases the initial rate of catalysis approximately 3 fold. The assay is performed in 96 well microtitre plates, and reaction products are detected following filtration through millipore p81 phosphocellulose plates. Assay Conditions

T1 sequence (P04629 440-796 limits assumed, species assumed): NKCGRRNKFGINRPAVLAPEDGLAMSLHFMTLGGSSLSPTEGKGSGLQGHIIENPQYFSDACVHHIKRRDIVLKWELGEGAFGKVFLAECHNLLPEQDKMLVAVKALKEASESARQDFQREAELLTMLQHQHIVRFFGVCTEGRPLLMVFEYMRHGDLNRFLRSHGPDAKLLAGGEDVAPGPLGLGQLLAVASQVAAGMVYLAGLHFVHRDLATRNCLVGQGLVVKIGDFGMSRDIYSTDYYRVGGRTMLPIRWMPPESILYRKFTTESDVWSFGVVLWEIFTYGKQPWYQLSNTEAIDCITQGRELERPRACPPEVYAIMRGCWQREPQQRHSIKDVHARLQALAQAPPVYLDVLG

| Structure (SMILES) | IC50 [nM] |
| --- | --- |
| O=C1Nc2ccccc2/C1=C/Nc1ccc(S(=O)(=O)Nc2ccccn2)cc1 [Example 3, 4-{[(Z)-(2-oxo-1,2-dihydro-3H-indol-3-ylidene)methyl]amino}-N-(2-pyridinyl)benzenesulfonamide] | 10 to 100 |
| Cc1nnc(NS(=O)(=O)c2ccc(N/C=C3\C(=O)Nc4ccccc43)cc2)s1 [Example 4, N-(5-methyl-1,3,4-thiadiazol-2-yl)-4-{[(Z)-(2-oxo-1,2-dihydro-3H-indol-3-ylidene)methyl]amino}benzenesulfonamide] | 10 to 100 |
| NS(=O)(=O)c1cccc(N/C=C2\C(=O)Nc3ccccc32)c1 [Example 5, 3-{[(Z)-(2-oxo-1,2-dihydro-3H-indol-3-ylidene)methyl]amino}benzenesulfonamide] | 10 to 100 |

Results, then the compound that gave them:

| IC50 [nM] | Structure (SMILES) |
| --- | --- |
| < 10 | CNS(=O)(=O)Cc1ccc(N/N=C2\C(=O)Nc3cc(C(C)C)c(O)c(Cl)c32)cc1 [Example 1, {4-[(2Z)-2-(4-chloro-5-hydroxy-6-isopropyl-2-oxo-1,2-dihydro-3H-indol-3-ylidene)hydrazino]phenyl}-N-methylmethanesulfonamide] |
| < 10 | CS(=O)(=O)Nc1ccc(N/C=C2\C(=O)Nc3ccccc32)cc1 [Example 2, N-(4-{[(Z)-(2-oxo-1,2-dihydro-3H-indol-3-ylidene)methyl]amino}phenyl)methanesulfonamide] |
